According to PubChem BioAssay (NCI):
Where “and” joins values, the source holds several entries; their conditions need not be identical. Identical values can stand only once.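 1) Cells in 96-well plates. 2) Compound, 48 h, 5 concentrations. 3) Linear interpolation between surrounding doses. 4) Unreached endpoint = highest concentration. Abbreviation: GI50, concentration required for 50% inhibition of growth. At the TGI there is no net growth.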

Assays:
Assay in all cases: growth of human tumour cells (NCI), 48 h
T-47D breast = tested on: T-47D breast
M14 melanoma = tested on: M14 melanoma
CCRF-CEM leukemia = tested on: CCRF-CEM leukemia
COLO 205 colon = tested on: COLO 205 colon
OVCAR-5 ovarian = tested on: OVCAR-5 ovarian
MDA-MB-231 breast = tested on: MDA-MB-231 breast
A498 renal = tested on: A498 renal
NCI-H522 lung = tested on: NCI-H522 lung
OVCAR-8 ovarian = tested on: OVCAR-8 ovarian
SK-MEL-28 melanoma = tested on: SK-MEL-28 melanoma

Structure (SMILES)	GI50 (T-47D breast)	TGI (T-47D breast)	GI50 (M14 melanoma)	TGI (M14 melanoma)	GI50 (CCRF-CEM leukemia)	TGI (CCRF-CEM leukemia)	GI50 (COLO 205 colon)	TGI (COLO 205 colon)	GI50 (OVCAR-5 ovarian)	TGI (OVCAR-5 ovarian)	GI50 (MDA-MB-231 breast)	TGI (MDA-MB-231 breast)	GI50 (A498 renal)	TGI (A498 renal)	GI50 (NCI-H522 lung)	TGI (NCI-H522 lung)	GI50 (OVCAR-8 ovarian) [µM]	TGI (OVCAR-8 ovarian) [µM]	GI50 (SK-MEL-28 melanoma)	TGI (SK-MEL-28 melanoma)
S=C(N/N=C/c1cc(Cl)cc(Cl)c1)NC12CC3CC(CC(C3)C1)C2	6.94 µM	> 100 µM	65 µM	> 100 µM	> 61.1 µM	> 100 µM	7.13 µM	> 100 µM	13.6 µM	> 100 µM	3.99 µM	> 100 µM	2.19 µM	7.73 µM	> 63.4 µM	> 100 µM	4.87	> 100	14.4 µM	> 100 µM
CN1CCCN(CCNc2nccc(-c3c(-c4cccc(O)c4)nc4sccn34)n2)S1(=O)=O	14.2 µM and 11.8 µM	57.1 µM and > 88.7 µM	0.17 µM and 0.128 µM	9.04 µM and 13.2 µM	8.29 µM and 4.7 µM	75 µM and 46.6 µM	0.423 µM and 0.477 µM	12.4 µM and 21.8 µM	27 µM and 32.3 µM	75 µM and > 100 µM	10 µM and 8.06 µM	59.2 µM and > 84.4 µM	5.31 µM and 3.4 µM	17.5 µM and 12.6 µM	5.54 µM and 9.27 µM	27.2 µM and 42.1 µM			0.168 µM and 0.226 µM	60.8 µM and 40.3 µM
C/C(=N/N(C=O)C[n+]1ccccc1)C(CN(CC(C)C)CC(C)C)C(=O)Nc1ccc(C)cc1C (stereo unspecified)				> 100 µM		> 100 µM		> 100 µM		> 100 µM				> 100 µM		> 100 µM		> 100		> 100 µM
CC(C)N(C(C)C)[PH+]1O[PH+](N(C(C)C)C(C)C)O[PH+](N(C(C)C)C(C)C)O[PH+](N(C(C)C)C(C)C)O[PH+](N(C(C)C)C(C)C)O1.[C-]#[O+].[C-]#[O+].[C-]#[O+].[C-]#[O+].[C-]#[O+].[C-]#[O+].[C-]#[O+].[Cr].[Cr] (stereo unspecified)			> 100 µM	> 100 µM	> 100 µM	> 100 µM	> 100 µM	> 100 µM	> 100 µM	> 100 µM			> 100 µM	> 100 µM	> 100 µM	> 100 µM	> 100	> 100	> 100 µM	> 100 µM
Clc1ccccc1NN(Cc1ccccn1)c1ccccc1Cl		> 100 µM		38.3 µM				31.3 µM		45.7 µM		57.4 µM		34.9 µM		41.1 µM		39.9		43.4 µM
Nc1cc(N)c2nc(-c3ccccc3)c(Oc3ccc(F)cc3)nc2c1			17.1 µM	45 µM			20 µM	36.5 µM	20.6 µM	47.6 µM	3.87 µM	28.8 µM	21.9 µM	39.6 µM	64.7 µM	> 100 µM	22.5	47.4	19.4 µM	46.5 µM
NS(=O)(=O)c1ccc(N2Cc3cc(Cl)ccc3OC3=C2C(=O)N(CC2CCCCC2)C3=O)cc1	0.365 µM	1.86 µM	1.25 µM	2.95 µM			0.716 µM	2.28 µM	1.76 µM	3.54 µM	1.11 µM	2.6 µM	1.26 µM	2.85 µM	0.273 µM	0.676 µM			1.16 µM	2.57 µM
C=C1C(=O)O[C@@H]2C[C@@]3(C)CC(=O)C=C(C)[C@@H]3C[C@H]12		28.3 µM		32.7 µM		> 100 µM		11.4 µM		32.9 µM		34 µM				20.3 µM		42.9		41.9 µM
O=C(C(=O)c1ccc(Cc2ccc(C(=O)C(=O)c3ccccc3)cc2)cc1)c1ccccc1				> 100 µM		> 100 µM		> 100 µM		> 100 µM				> 100 µM		> 100 µM		> 100		> 100 µM
Cc1cc2c(cc1C)NC1=C(N2)OC(c2c[nH]c3ccc(COc4ccccc4)cc23)C1=O (stereo unspecified)		> 100 µM		> 100 µM				> 100 µM		> 100 µM		67.1 µM		> 100 µM		> 100 µM		> 100		> 100 µM
O=c1oc2ccccc2c(O)c1C=NC(=S)c1ccncc1		> 100 µM		> 100 µM				> 100 µM		> 100 µM		> 100 µM						> 100		> 100 µM
COc1ccc(C2SC(N)=Nc3c2c(C)nn3C(=O)c2ccc(Cl)cc2)cc1OC (stereo unspecified)		> 10 µM		> 10 µM		> 10 µM		> 10 µM		> 10 µM		> 10 µM				> 10 µM		> 10		> 10 µM
CCC1(Br)C(=O)NC(=O)N(C2CC(O)C(CO)O2)C1N=[N+]=[N-] (stereo unspecified)				> 100 µM		> 100 µM		> 100 µM		> 100 µM				> 100 µM		> 100 µM		> 100		> 100 µM
CC1(C)C(=O)C(O)=CC2C1=CCC1C2(C)C(=O)CC2(C)C(C(C)(O)C(=O)CC(O)C(C)(C)O)C(O)CC12C (stereo unspecified)				23.8 µM		12 µM		> 100 µM		> 100 µM				4.37 µM		8.61 µM		> 100		7.43 µM
N#CC(C#N)SCc1ccccc1		> 100 µM		> 100 µM		> 87 µM		> 33.2 µM		> 40.3 µM				> 100 µM		57.7 µM		49.9		> 100 µM
COc1ccc(OC)c(-c2cc(-c3ccccc3)nn2-c2ccc(S(=O)(=O)NC(C)=O)cc2)c1			2.74 µM	8.74 µM	2.13 µM	6.55 µM			16.9 µM	31.3 µM	3.09 µM	14.1 µM			10.4 µM	34.8 µM	5.99	62.1		
Cc1c(C)c2cc3c(=O)ccoc3c(C)c2oc1=O				> 100 µM		> 100 µM		> 100 µM		> 100 µM				> 100 µM		> 100 µM		> 100		> 100 µM
COc1ccc([C@H]2CC(=O)N3CCCC3N2)cc1 (stereo partly specified)				> 100 µM		> 100 µM		> 100 µM		> 100 µM				> 100 µM		> 100 µM		> 100		> 100 µM
Nc1nc2c(ncn2Cc2ccccc2CCO)c(=O)[nH]1				> 100 µM		> 100 µM		> 100 µM		> 100 µM				> 100 µM		> 100 µM		> 100		> 100 µM
